Measured values taken from PubChem BioAssay AID2060336 (Molecular Pharmacology Branch, DTP, NCI, 2025).

System: 958767-090-R-J1-PDC spheroid growth
Assay: Anticancer human tumor 958767-090-R-J1-PDC patient-derived head and neck squamous carcinoma cell line growth inhibition [IpAb]
Conditions: spheroids with HUVEC and MSC; for IC50: curve of first compound; for viability, T/C: stronger effect = lower value
Method in brief: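 Combinations with ipatasertib or abemaciclib were tested on tumour spheroids holding HUVEC (25%) and MSC (15%) alongside 60% malignant cells. Top concentration was at or near clinical Cmax (10 microM if undefined), descending in half-log steps.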
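Also: spheroids exposed to agents for 7 days.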
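For viability, T/C in this document: 100% = DMSO vehicle control wells.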

`CC(C)(C)c1cnc(CSc2cnc(NC(=O)C3CCNCC3)s2)o1` + CC(C)NCC(C(=O)N1CCN(c2ncnc3c2C(C)CC3O)CC1)c1ccc(Cl)cc1 was tested, and the IC50 (second compound 0.1 µM) was 119 nM, the IC50 (second compound 0.316 µM) was 115 nM and the IC50 (second compound 1 µM) was 95.7 nM. For the same molecule, the IC50 (second compound 3.16 µM) was 101 nM, the IC50 (second compound 10 µM) was 41 nM and the viability, T/C (second compound 0.1 µM, first compound 0.00949 µM) was 98.5%. It also gave a viability, T/C (second compound 0.1 µM, first compound 0.03 µM) of 95.1%, a viability, T/C (second compound 0.1 µM, first compound 0.0949 µM) of 61.2% and a viability, T/C (second compound 0.1 µM, first compound 0.3 µM) of 3.88%. It also gave a viability, T/C (second compound 0.1 µM, first compound 0.949 µM) of 2.72%, a viability, T/C (second compound 0.1 µM, first compound 3 µM) of 2.41% and a viability, T/C (second compound 0.316 µM, first compound 0.00949 µM) of 80.6%. The viability, T/C (second compound 0.316 µM, first compound 0.03 µM) was 82.5%, the viability, T/C (second compound 0.316 µM, first compound 0.0949 µM) was 59.5% and the viability, T/C (second compound 0.316 µM, first compound 0.3 µM) was 2.24%. It also gave a viability, T/C (second compound 0.316 µM, first compound 0.949 µM) of 2.31%, a viability, T/C (second compound 0.316 µM, first compound 3 µM) of 2.18% and a viability, T/C (second compound 1 µM, first compound 0.00949 µM) of 72%. It also gave a viability, T/C (second compound 1 µM, first compound 0.03 µM) of 68%, a viability, T/C (second compound 1 µM, first compound 0.0949 µM) of 50.4% and a viability, T/C (second compound 1 µM, first compound 0.3 µM) of 1.77%. The viability, T/C (second compound 1 µM, first compound 0.949 µM) was 1.65%, the viability, T/C (second compound 1 µM, first compound 3 µM) was 2.3% and the viability, T/C (second compound 3.16 µM, first compound 0.00949 µM) was 63.6%. For the same molecule, the viability, T/C (second compound 3.16 µM, first compound 0.03 µM) was 62.9%, the viability, T/C (second compound 3.16 µM, first compound 0.0949 µM) was 52.6% and the viability, T/C (second compound 3.16 µM, first compound 0.3 µM) was 1.26%. It also gave a viability, T/C (second compound 3.16 µM, first compound 0.949 µM) of 1.8%, a viability, T/C (second compound 3.16 µM, first compound 3 µM) of 1.85% and a viability, T/C (second compound 10 µM, first compound 0.00949 µM) of 52.6%. It also gave a viability, T/C (second compound 10 µM, first compound 0.03 µM) of 68.9%, a viability, T/C (second compound 10 µM, first compound 0.0949 µM) of 21.1% and a viability, T/C (second compound 10 µM, first compound 0.3 µM) of 1.62%. It also gave a viability, T/C (second compound 10 µM, first compound 0.949 µM) of 1.38% and a viability, T/C (second compound 10 µM, first compound 3 µM) of 1.87%.

`Cn1nccc1Nc1nccc(-c2ccn(C(CO)c3ccc(Cl)c(F)c3)c(=O)c2)n1` (stereo not given) + CC(C)NCC(C(=O)N1CCN(c2ncnc3c2C(C)CC3O)CC1)c1ccc(Cl)cc1 was tested, and the IC50 (second compound 0.1 µM) was 495 nM, the IC50 (second compound 0.316 µM) was 137 nM and the IC50 (second compound 1 µM) was 64 nM. For the same molecule, the IC50 (second compound 3.16 µM) was 38.5 nM, the IC50 (second compound 10 µM) was < 31.6 nM and the viability, T/C (second compound 0.1 µM, first compound 0.0316 µM) was 86.8%. It also gave a viability, T/C (second compound 0.1 µM, first compound 0.1 µM) of 65.5%, a viability, T/C (second compound 0.1 µM, first compound 0.316 µM) of 56.1% and a viability, T/C (second compound 0.1 µM, first compound 1 µM) of 43.7%. For the same molecule, the viability, T/C (second compound 0.1 µM, first compound 3.16 µM) was 28.2%, the viability, T/C (second compound 0.1 µM, first compound 10 µM) was 13.4% and the viability, T/C (second compound 0.316 µM, first compound 0.0316 µM) was 66.5%. The viability, T/C (second compound 0.316 µM, first compound 0.1 µM) was 46.4%, the viability, T/C (second compound 0.316 µM, first compound 0.316 µM) was 44.6% and the viability, T/C (second compound 0.316 µM, first compound 1 µM) was 32.8%. The viability, T/C (second compound 0.316 µM, first compound 3.16 µM) was 17.7%, the viability, T/C (second compound 0.316 µM, first compound 10 µM) was 5.2% and the viability, T/C (second compound 1 µM, first compound 0.0316 µM) was 54.1%. For the same molecule, the viability, T/C (second compound 1 µM, first compound 0.1 µM) was 47.9%, the viability, T/C (second compound 1 µM, first compound 0.316 µM) was 36.1% and the viability, T/C (second compound 1 µM, first compound 1 µM) was 23.1%. The viability, T/C (second compound 1 µM, first compound 3.16 µM) was 13.2%, the viability, T/C (second compound 1 µM, first compound 10 µM) was 3.79% and the viability, T/C (second compound 3.16 µM, first compound 0.0316 µM) was 53.6%. For the same molecule, the viability, T/C (second compound 3.16 µM, first compound 0.1 µM) was 37.1%, the viability, T/C (second compound 3.16 µM, first compound 0.316 µM) was 27.8% and the viability, T/C (second compound 3.16 µM, first compound 1 µM) was 19.4%. The viability, T/C (second compound 3.16 µM, first compound 3.16 µM) was 10.4%, the viability, T/C (second compound 3.16 µM, first compound 10 µM) was 4.11% and the viability, T/C (second compound 10 µM, first compound 0.0316 µM) was 44.7%. The viability, T/C (second compound 10 µM, first compound 0.1 µM) was 35%, the viability, T/C (second compound 10 µM, first compound 0.316 µM) was 24.1% and the viability, T/C (second compound 10 µM, first compound 1 µM) was 15.2%. The viability, T/C (second compound 10 µM, first compound 3.16 µM) was 8.11% and the viability, T/C (second compound 10 µM, first compound 10 µM) was 3.09%.
